Reference: ChEMBL document CHEMBL3046235, “In vitro biological activities of new heterocyclic chalcone derivatives” (Med Chem Res, 2013)
Values after ≈ are worked out from the molar mass of the structure shown. Active and inactive are the calls of the source. The calls are words filed in the database; no cut-off is given here.

Key:
[1] = system: Aspergillus niger; test: Antimicrobial activity against Aspergillus niger assessed as diameter of growth inhibition zone at 40 ug/ml by disk diffusion method; format: functional; conditions: read-out: DIZ
[2] = system: Candida albicans; test: Antimicrobial activity against Candida albicans assessed as diameter of growth inhibition zone at 40 ug/ml by disk diffusion method; format: functional; conditions: read-out: DIZ
[3] = system: Staphylococcus aureus; test: Antimicrobial activity against Staphylococcus aureus isolated from infected patient assessed as growth inhibition by disk diffusion method; format: functional
[4] = system: Buffalopox virus; test: Antiviral activity against Buffalopox virus virus infected African green monkey Vero cells assessed as inhibition of viral replication at MNTC dose incubated for 24 hr measured after 4 days; format: functional
[5] = system: Buffalopox virus; test: Antiviral activity against Buffalopox virus virus infected African green monkey Vero cells assessed as reduction of virus titers at MNTC dose incubated for 24 hr measured after 4 days by TCID50 assay; format: functional, organism-based
[6] = system: Radical scavenging activity; test: Antioxidant activity assessed as DPPH radical scavenging activity at 15 ug/ml after 30 min by spectrophotometric analysis; format: functional
[7] = system: Vero; test: Cytotoxicity against Chlorocebus aethiops (African green monkey) Vero cells assessed as change in morphological changes after 4 days by inverted microscopic analysis; format: cell-based; conditions: chlorocebus sabaeus, 96 h
[8] = system: Bacillus subtilis; test: Antimicrobial activity against Bacillus subtilis isolated from infected patient assessed as diameter of growth inhibition zone at 40 ug/ml by disk diffusion method; format: functional; conditions: read-out: DIZ
[9] = system: Camelpox virus; test: Antiviral activity against Camelpox virus infected African green monkey Vero cells assessed as inhibition of viral replication at MNTC dose incubated for 24 hr measured after 3 days; format: functional
[10] = system: Aspergillus niger; test: Antimicrobial activity against Aspergillus niger assessed as growth inhibition by disk diffusion method; format: functional
[11] = system: HepG2; test: Growth inhibition of Homo sapiens (human) HepG2 cells at 25 to 100 ug/ml after 48 hr by MTT assay; format: functional, cell-based
[12] = system: Salmonella typhi; test: Antimicrobial activity against Salmonella enterica subsp. enterica serovar Typhi isolated from infected patient assessed as growth inhibition by disk diffusion method; format: functional
[13] = system: Camelpox virus; test: Antiviral activity against Camelpox virus infected African green monkey Vero cells assessed as reduction of virus titers at MNTC dose incubated for 24 hr measured after 3 days by TCID50 assay; format: functional, organism-based
[14] = system: Escherichia coli; test: Antimicrobial activity against Escherichia coli isolated from infected patient assessed as growth inhibition by disk diffusion method; format: functional
[15] = system: Bacillus subtilis; test: Antimicrobial activity against Bacillus subtilis isolated from infected patient assessed as growth inhibition by disk diffusion method; format: functional
[16] = system: Staphylococcus aureus; test: Antimicrobial activity against Staphylococcus aureus isolated from infected patient assessed as diameter of growth inhibition zone at 40 ug/ml by disk diffusion method; format: functional; conditions: read-out: DIZ
[17] = system: Salmonella typhi; test: Antimicrobial activity against Salmonella enterica subsp. enterica serovar Typhi isolated from infected patient assessed as diameter of growth inhibition zone at 40 ug/ml by disk diffusion method; format: functional; conditions: read-out: DIZ
[18] = system: Escherichia coli; test: Antimicrobial activity against Escherichia coli isolated from infected patient assessed as diameter of growth inhibition zone at 40 ug/ml by disk diffusion method; format: functional; conditions: read-out: DIZ
[19] = system: Goatpox virus; test: Antiviral activity against Goatpox virus infected African green monkey Vero cells assessed as inhibition of viral replication at MNTC dose incubated for 24 hr measured after 6 days; format: functional
[20] = system: Candida albicans; test: Antimicrobial activity against Candida albicans assessed as growth inhibition by disk diffusion method; format: functional
[21] = system: HepG2; test: Cytotoxicity against Homo sapiens (human) HepG2 cells assessed as inhibition of cell viability by trypan blue exclusion method; format: functional; conditions: read-out: LC50 (the source's name)
[22] = system: Goatpox virus; test: Antiviral activity against Goatpox virus infected African green monkey Vero cells assessed as reduction of virus titers at MNTC dose incubated for 24 hr measured after 6 days by TCID50 assay; format: functional, organism-based

Compound | zone of inhibition at 40 µg/mL [1] | zone of inhibition at 40 µg/mL [2] | MIC [3] | inhibition (INH) [4] | inhibition [5] | Activity [6] | MNTD [7] | zone of inhibition at 40 µg/mL [8] | inhibition (INH) [9] | MIC [10] | MIC [12] | inhibition [13] | MIC [14] | MIC [15] | zone of inhibition at 40 µg/mL [16] | zone of inhibition at 40 µg/mL [17] | zone of inhibition at 40 µg/mL [18] | inhibition (INH) [19] | MIC [20] | CC50 [21] | other results
O=C(/C=C/c1ccc(-c2ccccc2)cc1)c1ccsc1 | 24 mm | 30 mm | 30 µg/mL (≈ 103 µM) | 0% | inactive | 31% | 7.8 µg | 18 mm | 0% | 40 µg/mL (≈ 138 µM) | 30 µg/mL (≈ 103 µM) | inactive | 30 µg/mL (≈ 103 µM) | 30 µg/mL (≈ 103 µM) | 17 mm | 15 mm | 22 mm | 0% | 30 µg/mL (≈ 103 µM) | 13 µg/mL (≈ 44.8 µM) | growth inhibition (GI) [11]: Active; inhibition [22]: inactive
OC(Cn1cncn1)(Cn1cncn1)c1ccc(F)cc1F [FLUCONAZOLE] | 25 mm | 24 mm |  |  |  |  |  |  |  |  |  |  |  |  |  |  |  |  |  |  | 
Cc1cc(C(=O)/C=C/c2c[nH]c3ccccc23)c(C)o1 | 11 mm | 19 mm | 20 µg/mL (≈ 75.4 µM) | 0% | inactive | 31% | 75 µg | 22 mm | 0% | 40 µg/mL (≈ 151 µM) | 30 µg/mL (≈ 113 µM) | inactive | 40 µg/mL (≈ 151 µM) | 40 µg/mL (≈ 151 µM) | 22 mm | 22 mm | 21 mm | 0% | 40 µg/mL (≈ 151 µM) | 81 µg/mL (≈ 305 µM) | inhibition [22]: inactive
